Measured values taken from patent US6423730B1, “Method to control termites” (Dow AgroSciences LLC, priority 1999, dated 2002).

Experiments:
Reticulitermes = experiment: AWPA E1-97 treated southern yellow pine wood block termite test; format: in vivo; settings: treated southern yellow pine wood blocks, four weeks
Method: Compounds of Formula I were evaluated using standard evaluation methodology as prescribed by the American Wood Preservers Association Standard AWPA E1-97, incorporated herein by reference, using a species of the destructive termite, Reticulitermes.
In this test replicate containers containing damp sand and southern yellow pine wood blocks treated with the compound are used. Termites are introduced into the test container and after four weeks the containers are disassembled and the wood blocks are evaluated for termite damage. Termite mortality is also evaluated.

Reticulitermes lalvipes = experiment: Treated filter pad and pine wood chip petri dish termite kill test; format: in vivo; settings: 8 days after treatment, 13° C.
Method: Subterranean worker termites, Reticulitermes lalvipes, were purchased from Carolina Biological Supply Co. The insects were stored with their shipping material, decayed wood chips and moist paper towels, in an unlit growth chamber at 13° C. for three days prior to start of the test. This delay was to acclimate the termites to the test conditions as well as to eliminate weak individuals.
The compounds tested, 100 mg each, were dissolved in 10 mL of pure ethanol (dehydrated, 200 proof) to provide a solution of 10,000 ppm. The solution was serial diluted by 10× to achieve dilutions of 1,000, 100, 10, and 1 ppm. A pure cellulose fiber filter pad was soaked with 1 mL of each test sample and placed into a Falcon petri dish (50×9 mm sterile polystyrene). In addition, a pine wood chip, approximately 12×12×4 mm was dipped into the test solution for 30 seconds and placed on the filter paper. Solvent from the treated filters and wood chips was then allowed to evaporate for 24 hours. The next day, five termites were placed on the filter pad and the upper lid of the petri plate was secured. Three replications were used for each treatment.
The termites in the petri dishes were returned to the growth chamber at 13° C. The humidity was high enough to allow for condensation on the upper plate surface, which provided water for the termites. The petri dishes were briefly removed from the chamber at 2, 4, and 8 days after treatment to count the number of live termites. Data was expressed as the percentage of control (kill) of termites.

Structure (SMILES) | Minimum Retention Preventing Termite Attack (Reticulitermes) [kg/m^3] | Control (% kill at 8 days) (Reticulitermes lalvipes; dose 1 ppm) [%] | Control (% kill at 8 days) (Reticulitermes lalvipes; dose 10 ppm) [%] | Control (% kill at 8 days) (Reticulitermes lalvipes; dose 100 ppm) [%] | Control (% kill at 8 days) (Reticulitermes lalvipes; dose 1,000 ppm) [%] | Control (% kill at 8 days) (Reticulitermes lalvipes; dose 10,000 ppm) [%]
CCOP(=S)(OCC)Oc1nc(Cl)c(Cl)cc1Cl [Comparative, chlorpyrifos, reference compound] | >0.160 | – | – | – | – | –
O=C(Nc1cc(Cl)c(Cl)c(Cl)c1)c1sc(C(F)(F)F)nc1C(F)(F)F [Compound 4] | – | 77 | 47 | 33 | 73 | 100
O=C(Nc1c(Br)cc(OC(F)(F)F)cc1Br)c1sc(C(F)(F)F)nc1C(F)(F)F [Compound 5] | 0.768 | – | – | – | – | –
O=C(Nc1ccc(Cl)c(Cl)c1Cl)c1sc(C(F)(F)F)nc1C(F)(F)F [Compound 6] | – | 33 | 27 | 53 | 100 | 100
O=C(Nc1cc(Cl)c(Cl)cc1Cl)c1sc(C(F)(F)F)nc1C(F)(F)F [Compound 7] | – | 73 | 60 | 87 | 100 | 100
O=C(Nc1ccc(Cl)cc1Cl)c1sc(C(F)(F)F)nc1C(F)(F)F [Compound 8] | – | 7 | 0 | 0 | 20 | 100
O=C(Nc1cc(Cl)ccc1Cl)c1sc(C(F)(F)F)nc1C(F)(F)F [Compound 9] | – | 27 | 40 | 20 | 53 | 100
O=C(Nc1c(Cl)cccc1Cl)c1sc(C(F)(F)F)nc1C(F)(F)F [Compound 10] | – | 7 | 0 | 0 | 67 | 73
O=C(Nc1cc(Cl)cc(Cl)c1)c1sc(C(F)(F)F)nc1C(F)(F)F [Compound 11] | – | 0 | 7 | 13 | 13 | 67
